23 molecules from patent US8614201B2 (Janssen Pharmaceutica NV, priority 2009, dated 2013) can be followed below.

The target in the experiment is Human TRPA1 (Homo sapiens, UniProt O75762). The experiment can be described thus: Assay 1: In vitro cellular testing of TRPA1 modulation (CHO-TREx, Fluo-3 calcium fluorescence, AITC agonist). Also noted: expressed in transfected cells; host or cells: CHO-TREx cells (Invitrogen), vector pcDNA4/TO. The format is cell-based. The conditions noted are these: CHO-TREx cells expressing human TRPA1; Fluo-3 fluorescence (FLIPR/Tetra); agonist 15 μM allyl isothiocyanate (AITC); 30 minute antagonist incubation. As for the experimental part: Assay 1: In Vitro Cellular Testing of TRPA1 Modulation
Human TRPA1, sequence (O75762 whole entry): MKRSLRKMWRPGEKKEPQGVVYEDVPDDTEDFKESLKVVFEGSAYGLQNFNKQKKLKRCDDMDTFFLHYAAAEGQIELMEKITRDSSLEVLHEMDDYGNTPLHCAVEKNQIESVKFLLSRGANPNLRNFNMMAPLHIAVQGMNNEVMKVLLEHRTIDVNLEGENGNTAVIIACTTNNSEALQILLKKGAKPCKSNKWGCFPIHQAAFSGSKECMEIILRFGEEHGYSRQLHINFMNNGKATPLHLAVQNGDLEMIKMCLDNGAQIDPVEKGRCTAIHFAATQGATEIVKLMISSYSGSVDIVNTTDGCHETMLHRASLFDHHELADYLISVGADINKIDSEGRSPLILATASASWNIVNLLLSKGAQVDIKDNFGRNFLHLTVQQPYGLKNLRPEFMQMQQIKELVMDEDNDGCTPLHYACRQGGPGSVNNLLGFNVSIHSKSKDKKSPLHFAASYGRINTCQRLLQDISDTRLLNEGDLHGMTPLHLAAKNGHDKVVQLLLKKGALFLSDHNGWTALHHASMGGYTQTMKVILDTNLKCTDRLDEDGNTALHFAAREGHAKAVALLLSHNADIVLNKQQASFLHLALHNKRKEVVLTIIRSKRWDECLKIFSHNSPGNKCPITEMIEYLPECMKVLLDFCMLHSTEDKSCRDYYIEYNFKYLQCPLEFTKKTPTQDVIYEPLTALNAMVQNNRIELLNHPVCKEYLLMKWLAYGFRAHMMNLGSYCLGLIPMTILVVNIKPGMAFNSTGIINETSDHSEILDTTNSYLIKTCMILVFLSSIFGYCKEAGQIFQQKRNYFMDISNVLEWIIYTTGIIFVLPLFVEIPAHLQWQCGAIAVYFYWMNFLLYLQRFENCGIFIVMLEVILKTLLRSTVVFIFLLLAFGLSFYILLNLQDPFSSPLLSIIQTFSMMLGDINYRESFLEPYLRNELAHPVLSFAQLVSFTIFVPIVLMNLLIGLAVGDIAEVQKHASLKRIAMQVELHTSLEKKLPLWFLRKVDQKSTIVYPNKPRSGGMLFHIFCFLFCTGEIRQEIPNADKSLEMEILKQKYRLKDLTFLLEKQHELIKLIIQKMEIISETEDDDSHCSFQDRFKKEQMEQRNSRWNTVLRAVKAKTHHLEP
Human TRPA1 (NCBI accession number NM_007332.1) was cloned into pcDNA4/TO. CHO-TREx cells (Invitrogen, Carlsbad, Calif.) were stably transfected with pcDNA4/TO-TRPA1 using lipofection to generate a clonal cell line that expressed human TRPA1 in a tetracycline-inducible manner. Culture medium used was Ham's F-12 supplemented with 10% fetal bovine serum, 2 mM L-glutamine, 5 μg/ml blasticidin and 200 μg/ml zeocin. Cells were seeded in black-walled clear-bottom 96-well plates at a density of 50,000 cells per well and cultured overnight at 37° C. with 5% CO2 in culture medium supplemented with 1 μg/ml tetracycline. On the day of the experiment, cells were washed 3 times with HEPES buffered saline (in mM: NaCl 137, MgCl2 0.5, KCl 2, dextrose 5, CaCl2 2 and HEPES 10; pH 7.4). Cells were then loaded with calcium-sensitive fluorescent dye by incubation in the presence of 4 μM Fluo-3 AM (TefLabs, Austin, Tex.) at room temperature in the dark for 60 minutes. After incubation with dye, cells were washed in assay buffer and, if appropriate, antagonists were added at this time. Following a further 30 minute incubation, cells were assayed using a Fluorometric Imaging Plate Reader (FLIPR™) or a Tetra (both manufactured by Molecular Devices, CA) to simultaneously monitor Fluo-3 fluorescence in all wells (λexcitation=488 nm, λemission=540 nm). Changes in fluorescence were monitored for 3 minutes after the addition of 15 μM allyl isothiocyanate (AITC) as an agonist. Concentration-dependence of receptor blocking was determined by exposing each well of cells in duplicate rows of a 96-well plate to a serial dilution of test compound. The concentration series usually started at 10 μM with a three-fold serial decrement in concentration. The magnitude of the response to agonist challenge was determined by measuring the fluorescence before and 3 minutes after the addition of the agonist. The degree of blocking was determined by comparing the response to that of negative (no added antagonist) and positive (10 μM ruthenium red) control wells. Data were analyzed using a non-linear regression program (Origin; OriginLab, MA) to fit the concentration-response data to a Hill function. Antagonist potencies were determined as the concentration required to produce 50% reduction in the response as compared to the negative and positive controls.
Regarding `CC(Nc1cc(CNC(=O)[C@@H]2C=CCN2S(=O)(=O)c2ccc(Cl)s2)cc(-c2ccc(C(F)(F)F)cc2)n1)c1ccncc1` (stereo partly drawn) [Example 404, (2S)-1-[(5-Chlorothiophen-2-yl)sulfonyl]-N-({2-[(1-pyridin-4-ylethyl)amino]-6-[4-(trifluoromethyl)phenyl]pyridin-4-yl}methyl)-2,5-dihydro-1H-pyrrole-2-carboxamide], the IC50 is 1910 nM.

As to `COc1nc(CNC(=O)[C@@H]2CCCN2S(=O)(=O)c2ccc(Cl)s2)cc(-c2ccc(C(F)(F)F)cc2)n1` [Example 47, 1-(5-Chloro-thiophene-2-sulfonyl)-pyrrolidine-2S-carboxylic acid [2-methoxy-6-(4-trifluoromethyl-phenyl)-pyrimidin-4-ylmethyl]-amide], the IC50 came out at 14 nM.

Regarding `O=C(NCc1cccc(-c2ccc(Br)cc2)c1)[C@@H]1CCCN1S(=O)(=O)c1ccc(F)cc1` [Example 77, 1-(4-Fluoro-benzenesulfonyl)-pyrrolidine-2S-carboxylic acid (4′-bromo-biphenyl-3-ylmethyl)-amide], the IC50 was determined as 59 nM.

On to `NS(=O)(=O)c1ccc(-c2cccc(CNC(=O)[C@@H]3CCCN3S(=O)(=O)c3ccc(F)cc3)c2)cc1` [Example 78, 1-(4-Fluorobenzenesulfonyl)-pyrrolidine-2S-carboxylic acid (4′-sulfamoyl-biphenyl-3-ylmethyl)-amide], for which the IC50 turned out to be 6050 nM.

As for `CC(Nc1cc(CNC(=O)[C@@H]2CCCN2S(=O)(=O)c2ccc(F)cc2)cc(-c2ccc(C(F)(F)F)cc2)n1)c1cccnc1` (stereo partly drawn) [Example 349, 1-[(4-Fluorophenyl)sulfonyl]-N-({2-[(1-pyridin-3-ylethyl)amino]-6-[4-(trifluoromethyl)phenyl]pyridin-4-yl}methyl)-L-prolinamide], the IC50 was determined as 1690 nM.

Take `O=C(NCc1cc(-c2ccc(C(F)(F)F)cc2)ncn1)[C@@H]1CCCN1S(=O)(=O)c1ccco1` [Example 167, 1-(Furan-2-sulfonyl)-pyrrolidine-2S-carboxylic acid [6-(4-trifluoromethylphenyl)-pyrimidin-4-ylmethyl]-amide]: the concentration for half-maximal inhibition (IC50) was determined as 63 nM.

Regarding `O=C(NCc1cc(-c2ccc(C(F)(F)F)cc2)ncn1)[C@@H]1CCCN1S(=O)(=O)c1cc(Cl)c(Cl)s1` [Example 165, 1-(4,5-Dichlorothiophene-2-sulfonyl)-pyrrolidine-2S-carboxylic acid [6-(4-trifluoromethylphenyl)-pyrimidin-4-ylmethyl]-amide], the IC50 stood at 11 nM.

As for `O=C(NCc1cc(NCc2ccccn2)nc(-c2ccc(C(F)(F)F)cc2)c1)[C@@H]1CC(F)(F)CN1S(=O)(=O)c1ccc(F)cc1` [Example 374, 4,4-Difluoro-1-[(4-fluorophenyl)sulfonyl]-N-({2-[(pyridin-2-ylmethyl)amino]-6-[4-(trifluoromethyl)phenyl]pyridin-4-yl}methyl)-L-prolinamide], the IC50 was 2090 nM.

On to `CC(Nc1cc(CNC(=O)[C@@H]2CC(F)(F)CN2S(=O)(=O)c2ccc(Cl)s2)cc(-c2ccc(C(F)(F)F)cc2)n1)c1ccncc1` (stereo partly drawn) [Example 400, 1-[(5-Chlorothiophen-2-yl)sulfonyl]-4,4-difluoro-N-({2-[(1-pyridin-4-ylethyl)amino]-6-[4-(trifluoromethyl)phenyl]pyridin-4-yl}methyl)-L-prolinamide], for which the IC50 worked out at 1830 nM.

Regarding `O=C(NCc1cc(-c2ccc(C(F)(F)F)cc2)nc(N2CCN(Cc3ccccc3)CC2)c1)[C@@H]1CC(F)(F)CN1S(=O)(=O)c1ccc(Cl)s1` [Example 377, N-({2-(4-Benzylpiperazin-1-yl)-6-[4-(trifluoromethyl)phenyl]pyridin-4-yl}methyl)-1-[(5-chlorothiophen-2-yl)sulfonyl]-4,4-difluoro-L-prolinamide], the IC50 was 4710 nM.

Take `CC1CCCN1c1cc(CNC(=O)[C@@H]2CCCN2S(=O)(=O)c2ccc(Cl)s2)cc(-c2ccc(C(F)(F)F)cc2)n1` (stereo partly drawn) [Example 333, 1-[(5-Chlorothiophen-2-yl)sulfonyl]-N-({2-(2-methylpyrrolidin-1-yl)-6-[4-(trifluoromethyl)phenyl]pyridin-4-yl}methyl)-L-prolinamide]: the IC50 is 73 nM.

For the molecule `CNC1CCN(c2nc(CNC(=O)[C@@H]3CCCN3S(=O)(=O)c3ccc(Cl)s3)cc(-c3ccc(C(F)(F)F)cc3)n2)C1` (stereo partly drawn) [Example 41, 1-(5-Chloro-thiophene-2-sulfonyl)-pyrrolidine-2S-carboxylic acid [2-(3-methylamino-pyrrolidin-1-yl)-6-(4-trifluoromethyl-phenyl)-pyrimidin-4-ylmethyl]-amide], the IC50 is 2920 nM.

As to `O=C(NCc1cccc(-c2ccc3cc[nH]c3c2)c1)[C@@H]1CCCN1S(=O)(=O)c1ccc(F)cc1` [Example 101, 1-(4-Fluorobenzenesulfonyl)-pyrrolidine-2S-carboxylic acid 3-(1H-indol-6-yl)-benzylamide], the IC50 was 4050 nM.

Turning to `O=C(NCc1cccc(-c2ccc(C(F)(F)F)cn2)c1)[C@@H]1CCCN1S(=O)(=O)c1ccc(F)cc1` [Example 92, 1-(4-Fluorobenzenesulfonyl)-pyrrolidine-2S-carboxylic acid 3-(5-trifluoromethylpyridin-2-yl)-benzylamide], the IC50 is 17 nM.

In the case of `O=C(NCc1cc(-c2ccc(C(F)(F)F)cc2)nc(N2CCN(c3ccccc3F)CC2)c1)[C@@H]1CCCN1S(=O)(=O)c1ccc(F)cc1` [Example 325, N-({2-[4-(2-Fluorophenyl)piperazin-1-yl]-6-[4-(trifluoromethyl)phenyl]pyridin-4-yl}methyl)-1-[(4-fluorophenyl)sulfonyl]-L-prolinamide], the IC50 stood at 845 nM.

On to `O=C(NCc1cccc(-c2ccc(C(F)(F)F)cc2)c1)[C@@H]1C=CCN1S(=O)(=O)c1ccc(Cl)s1` [Example 112, 1-(5-Chlorothiophene-2-sulfonyl)-2,5-dihydro-1H-pyrrole-2S-carboxylic acid (4′-trifluoromethylbiphenyl-3-ylmethyl)-amide], for which the half-maximal inhibitory concentration (IC50) amounted to 11 nM.

`O=C(NCc1cccc(-c2ccc(C(F)(F)F)cc2)c1)[C@@H]1[C@H]2C[C@H]2CN1S(=O)(=O)c1ccc(Cl)s1` [Example 110, 3-(5-Chlorothiophene-2-sulfonyl)-3-aza-1S,5R-bicyclo[3.1.0]hexane-2S-carboxylic acid (4′-trifluoromethylbiphenyl-3-ylmethyl)-amide]: the IC50 came out at 92 nM.

With `O=C(NCc1cc(-c2ccc(C(F)(F)F)cc2)ncn1)[C@@H]1CCCN1S(=O)(=O)c1ccc(Cl)cc1` [Example 152, 1-(4-Chlorobenzenesulfonyl)-pyrrolidine-2S-carboxylic acid [6-(4-trifluoromethyl-Phenyl)-pyrimidin-4-ylmethyl]-amide], the IC50 was determined as 66 nM.

On to `CC(C)CN1CCN(c2nc(CNC(=O)[C@@H]3CCCN3S(=O)(=O)c3ccc(F)cc3)cc(-c3ccc(C(F)(F)F)cc3)n2)CC1` [Example 1, 1-(4-Fluoro-benzenesulfonyl)-pyrrolidine-2S-carboxylic acid [2-(4-isobutyl-piperazin-1-yl)-6-(4-trifluoromethyl-phenyl)-pyrimidin-4-ylmethyl]-amide], for which the IC50 stood at 36 nM.

Take `CC(NC(=O)[C@@H]1CCCN1S(=O)(=O)c1ccc(F)cc1)c1cc(-c2ccc(C(F)(F)F)cc2)ncn1` (single isomer, unassigned) [Example 182, (1R*,2S)-1-(4-Fluoro-benzenesulfonyl)-pyrrolidine-2-carboxylic acid {1-[6-(4-trifluoromethyl-phenyl)-pyrimidin-4-yl]-ethyl}-amide]: the IC50 amounted to 923 nM.

For `O=C(NCc1cc(-c2ccc(C(F)(F)F)cc2)nc(N2CCN(Cc3cccnc3)CC2)n1)[C@@H]1CCCN1S(=O)(=O)c1ccc(F)cc1` [Example 19, 1-(4-Fluoro-benzenesulfonyl)-pyrrolidine-2S-carboxylic acid [2-(4-pyridin-3-ylmethyl-piperazin-1-yl)-6-(4-trifluoromethyl-phenyl)-pyrimidin-4-ylmethyl]-amide], the IC50 was determined as 16 nM.

Consider `O=C(NCc1cc(-c2ccc(C(F)(F)F)cc2)ncn1)[C@@H]1CCCN1S(=O)(=O)c1ccsc1` [Example 172, 1-(Thiophene-3-sulfonyl)-pyrrolidine-2S-carboxylic acid [6-(4-trifluoromethyl-phenyl)-pyrimidin-4-ylmethyl]-amide], for which the IC50 is 11 nM.

With `O=C(NCc1ccnc(-c2ccc(OC(F)(F)F)cc2)c1)[C@@H]1C=CCN1S(=O)(=O)c1ccc(F)cc1` [Example 133, 1-(4-Fluoro-benzenesulfonyl)-2,5-dihydro-1H-pyrrole-2S-carboxylic acid [2-(4-trifluoromethoxy-phenyl)-pyridin-4-ylmethyl]-amide], the IC50 was 26 nM.
